Measured values reported in PubChem BioAssay AID330 (DTP/NCI, 2004).
Where “and” joins values, the source holds several entries; their conditions need not be identical. Identical values can stand only once. Toxic doses and inconclusive results are not listed.

Test system: P388 leukemia ip, CD2F1 mice, survival T/C
Experiment: NCI In Vivo Anticancer Drug Screen. Data for tumor model P388 Leukemia (intraperitoneal) in CD2F1 (CDF1) mice
Settings: endpoint: median survival time, higher = longer survival
Method in brief: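 Mice carrying the transplanted tumor received test compound or vehicle. Survival was recorded in each group, and the value is the treated-group measurement divided by that of the vehicle-treated control group.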

[1] = dose: 50.0 mg/kg/injection, schedule: Q01DX009 (ip), vehicle: Klucel (hydroxypropylcellulose) (HPC)
[2] = dose: 100.0 mg/kg/injection, schedule: Q01DX009 (ip), vehicle: Klucel (hydroxypropylcellulose) (HPC)
[3] = dose: 200.0 mg/kg/injection, schedule: Q01DX009 (ip), vehicle: Klucel (hydroxypropylcellulose) (HPC)
[4] = dose: 60.0 mg/kg/injection, schedule: Q01DX005 (ip), vehicle: saline with Tween-80
[5] = dose: 120.0 mg/kg/injection, schedule: Q01DX005 (ip), vehicle: saline with Tween-80
[6] = dose: 240.0 mg/kg/injection, schedule: Q01DX005 (ip), vehicle: saline with Tween-80
[7] = dose: 25.0 mg/kg/injection, schedule: Q01DX009 (ip), vehicle: saline
[8] = dose: 50.0 mg/kg/injection, schedule: Q01DX009 (ip), vehicle: saline
[9] = dose: 100.0 mg/kg/injection, schedule: Q01DX009 (ip), vehicle: saline
[10] = dose: 200.0 mg/kg/injection, schedule: Q01DX009 (ip), vehicle: saline
[11] = dose: 1.56 mg/kg/injection, schedule: Q01DX005 (ip), vehicle: Klucel (hydroxypropylcellulose) (HPC)
[12] = dose: 3.12 mg/kg/injection, schedule: Q01DX005 (ip), vehicle: Klucel (hydroxypropylcellulose) (HPC)
[13] = dose: 12.5 mg/kg/injection, schedule: Q01DX005 (ip), vehicle: Klucel (hydroxypropylcellulose) (HPC)
[14] = dose: 50.0 mg/kg/injection, schedule: Q01DX009 (ip), vehicle: saline with Tween-80
[15] = dose: 100.0 mg/kg/injection, schedule: Q01DX009 (ip), vehicle: saline with Tween-80
[16] = dose: 200.0 mg/kg/injection, schedule: Q01DX009 (ip), vehicle: saline with Tween-80
[17] = dose: 50.0 mg/kg/injection, schedule: Q01DX005 (ip), vehicle: saline with Tween-80
[18] = dose: 100.0 mg/kg/injection, schedule: Q01DX005 (ip), vehicle: saline with Tween-80
[19] = dose: 200.0 mg/kg/injection, schedule: Q01DX005 (ip), vehicle: saline with Tween-80
[20] = dose: 6.25 mg/kg/injection, schedule: Q01DX009 (ip), vehicle: saline

With CN(C)CCCC12OC(c3ccccc31)C(O)c1ccccc12 (stereo unspecified) the T/C (dose: 25.0 mg/kg/injection, schedule: Q01DX009 (ip), vehicle: Klucel (hydroxypropylcellulose) (HPC)) was 102 % of control, the T/C [1] was 103 % of control and the T/C [2] was 105 % of control. The T/C [3] was 94 % of control.
COc1ccc(OC)c(NC(=O)Oc2ccc(C#N)cc2)c1 was tested, and the T/C [4] was 119 % of control, the T/C [5] was 107 % of control and the T/C [6] was 111 % of control.
O=C(NC(Sc1ccc(Cl)cc1)C(=O)O)c1ccccc1 (stereo unspecified) was tested, and the T/C [1] was 104 % of control, the T/C [2] was 94 % of control and the T/C [3] was 94 % of control.
In the case of N/C(=N\Cl)C(Cl)(Cl)Cl, the T/C (dose: 16.5 mg/kg/injection, schedule: Q01DX009 (ip), vehicle: saline) is reported as 113 % of control, the T/C [7] is reported as 106 % of control and the T/C (dose: 37.5 mg/kg/injection, schedule: Q01DX009 (ip), vehicle: saline) is reported as 111 % of control.
O=C(O)c1ccc(O)c(O)c1 was tested, and the T/C [8] was 104 % of control and 111 % of control, the T/C [9] was 100 % of control and 103 % of control and the T/C [10] was 103 % of control and 98 % of control. The T/C (dose: 400.0 mg/kg/injection, schedule: Q01DX009 (ip), vehicle: saline) was 103 % of control and 118 % of control and the T/C (dose: 600.0 mg/kg/injection, schedule: Q01DX009 (ip), vehicle: saline) was 100 % of control.
O=P(CCCCP(=O)(c1ccccc1)c1ccccc1)(c1ccccc1)c1ccccc1.[Cl][Sn]([Cl])([c]1ccccc1)[c]1ccccc1 was tested, and the T/C [11] was 114 % of control, the T/C [12] was 114 % of control and the T/C [13] was 115 % of control.
S=C(SCc1ccccc1)N1CCN(C(=S)SCc2ccccc2)CC1 was tested, and the T/C [14] was 89 % of control, the T/C [15] was 91 % of control and the T/C [16] was 91 % of control.
In the case of Cc1ccc(-n2c(=O)c3[nH]c4ccccc4sc=3c2=O)cc1, the T/C [17] is reported as 102 % of control, the T/C [18] is reported as 95 % of control and the T/C [19] is reported as 91 % of control.
With COc1ccc2c(c1)OCCN(C)OC2c1cccc(Cl)c1 (stereo unspecified) the T/C [17] was 107 % of control, the T/C [18] was 99 % of control and the T/C [19] was 92 % of control.
For CN(C)c1ccc(C2Sc3ccccc3S2)cc1, the T/C (dose: 100.0 mg/kg/injection, schedule: Q01DX001 (ip), vehicle: Klucel (hydroxypropylcellulose) (HPC)) was 97 % of control, the T/C (dose: 200.0 mg/kg/injection, schedule: Q01DX001 (ip), vehicle: Klucel (hydroxypropylcellulose) (HPC)) was 95 % of control and the T/C (dose: 400.0 mg/kg/injection, schedule: Q01DX001 (ip), vehicle: Klucel (hydroxypropylcellulose) (HPC)) was 97 % of control.
O=C1NC(=O)N2CC(CBr)OC2C1c1ccccc1 (stereo unspecified) was tested, and the T/C [1] was 101 % of control, the T/C [2] was 100 % of control and the T/C [3] was 100 % of control.
With CCN(CC)CCCNCc1cc(-c2ccccc2)nc2ccccc12 the T/C [17] was 101 % of control, the T/C [18] was 100 % of control and the T/C [19] was 95 % of control.
With CC1(C)SC2C(NC(=O)C(N)c3ccc(O)cc3)C(=O)N2C1C(=O)O (stereo unspecified) the T/C [8] was 113 % of control, the T/C [9] was 116 % of control and the T/C [10] was 113 % of control.
With O=NNc1ccc(-c2ccccc2)cn1 the T/C [20] was 101 % of control, the T/C [7] was 181 % of control and the T/C [8] was 108 % of control.
For CN(C)CCOc1cccc(NC2=C(Cl)C(=O)C(Nc3cccc(OCCN(C)C)c3)=C(Cl)C2=O)c1, the T/C [11] was 100 % of control and 107 % of control, the T/C [12] was 107 % of control and 96 % of control and the T/C (dose: 6.25 mg/kg/injection, schedule: Q01DX005 (ip), vehicle: Klucel (hydroxypropylcellulose) (HPC)) was 104 % of control and 122 % of control and 97 % of control.
For CC(NCCc1ccccc1)C1CCOC1=O (stereo unspecified), the T/C [20] was 98 % of control, the T/C (dose: 12.5 mg/kg/injection, schedule: Q01DX009 (ip), vehicle: saline) was 97 % of control and 102 % of control and the T/C [7] was 103 % of control and 109 % of control. For the same compound, the T/C [8] was 100 % of control and 97 % of control.
With O=[N+]([O-])c1ccc(-c2csc(COc3ccccc3)n2)cc1 the T/C (dose: 50.0 mg/kg/injection, schedule: Q01DX009 (ip), vehicle: gum acacia) was 98 % of control, the T/C (dose: 100.0 mg/kg/injection, schedule: Q01DX009 (ip), vehicle: gum acacia) was 101 % of control and the T/C (dose: 200.0 mg/kg/injection, schedule: Q01DX009 (ip), vehicle: gum acacia) was 96 % of control.
Cn1[nH]c(C(C)(C)O)cc1=O was tested, and the T/C (dose: 100.0 mg/kg/injection, schedule: Q01DX001 (ip), vehicle: saline) was 107 % of control, the T/C (dose: 200.0 mg/kg/injection, schedule: Q01DX001 (ip), vehicle: saline) was 97 % of control and the T/C (dose: 400.0 mg/kg/injection, schedule: Q01DX001 (ip), vehicle: saline) was 101 % of control.
CCN1CSC(=S)N(Cc2ccccc2)C1 was tested, and the T/C [1] was 99 % of control, the T/C [2] was 101 % of control and the T/C [3] was 101 % of control.
With O=C(CCCCCCCCC(=O)NO)NO the T/C [4] was 96 % of control, the T/C [5] was 100 % of control and the T/C [6] was 100 % of control.
In the case of CCC(CC)NCCNc1cc(OC)cc2cccnc12, the T/C (dose: 12.5 mg/kg/injection, schedule: Q01DX005 (ip), vehicle: saline) is reported as 109 % of control, the T/C (dose: 25.0 mg/kg/injection, schedule: Q01DX005 (ip), vehicle: saline) is reported as 108 % of control and the T/C (dose: 50.0 mg/kg/injection, schedule: Q01DX005 (ip), vehicle: saline) is reported as 100 % of control and 103 % of control.
For COc1ccc2c(c1)CC[n+]1c-2ccc2c1CCC2=O, the T/C [17] was 111 % of control.
In the case of CC1=C(CO)C(=O)OC(C(C)C2CCC3C4CC5OC56C(O)C(N5CCCCCC5)CC(=O)C6(C)C4CCC23C)C1 (stereo unspecified), the T/C (dose: 9.38 mg/kg/injection, schedule: Q01DX005 (ip), vehicle: Klucel (hydroxypropylcellulose) (HPC)) is reported as 101 % of control, the T/C (dose: 18.75 mg/kg/injection, schedule: Q01DX005 (ip), vehicle: Klucel (hydroxypropylcellulose) (HPC)) is reported as 101 % of control and the T/C (dose: 37.5 mg/kg/injection, schedule: Q01DX005 (ip), vehicle: Klucel (hydroxypropylcellulose) (HPC)) is reported as 105 % of control. For the same compound, the T/C (dose: 75.0 mg/kg/injection, schedule: Q01DX005 (ip), vehicle: Klucel (hydroxypropylcellulose) (HPC)) was 105 % of control and the T/C (dose: 150.0 mg/kg/injection, schedule: Q01DX005 (ip), vehicle: Klucel (hydroxypropylcellulose) (HPC)) was 104 % of control.
CC(=O)Nc1ccc(NN=O)cn1 was tested, and the T/C (dose: 3.12 mg/kg/injection, schedule: Q01DX009 (ip), vehicle: water) was 113 % of control, the T/C (dose: 6.25 mg/kg/injection, schedule: Q01DX009 (ip), vehicle: water) was 106 % of control and the T/C (dose: 12.5 mg/kg/injection, schedule: Q01DX009 (ip), vehicle: water) was 110 % of control and 114 % of control. For the same compound, the T/C (dose: 25.0 mg/kg/injection, schedule: Q01DX009 (ip), vehicle: water) was 116 % of control.
With COC(=O)C(=O)C1(c2nc3n(c2O)/C(=N/C(=O)Nc2ccc(Cl)cc2)N=N3)CCCCCC1=O (stereo unspecified) the T/C [4] was 100 % of control, the T/C [5] was 99 % of control and the T/C [6] was 94 % of control.
In the case of CCN(CC)CCNC(=O)c1nn(-c2ccc(C)cc2)c2c1N(C)S(=O)(=O)c1ccccc1-2, the T/C (dose: 100.0 mg/kg/injection, schedule: Q01DX001 (ip), vehicle: saline with Tween-80) is reported as 100 % of control, the T/C (dose: 200.0 mg/kg/injection, schedule: Q01DX001 (ip), vehicle: saline with Tween-80) is reported as 97 % of control and the T/C (dose: 400.0 mg/kg/injection, schedule: Q01DX001 (ip), vehicle: saline with Tween-80) is reported as 97 % of control.
In the case of Nc1nc(C[P+](c2ccccc2)(c2ccccc2)c2ccccc2)c(CCCCc2ccccc2)c(=O)[nH]1, the T/C [13] is reported as 101 % of control, the T/C (dose: 25.0 mg/kg/injection, schedule: Q01DX005 (ip), vehicle: Klucel (hydroxypropylcellulose) (HPC)) is reported as 101 % of control and the T/C (dose: 50.0 mg/kg/injection, schedule: Q01DX005 (ip), vehicle: Klucel (hydroxypropylcellulose) (HPC)) is reported as 98 % of control and 99 % of control.
For CCC1CN1P(=O)(Oc1ccc2ccccc2c1)N1CC1CC (stereo unspecified), the T/C (dose: 44.0 mg/kg/injection, schedule: Q04DX003 (ip), vehicle: saline with Tween-80) was 104 % of control, the T/C [14] was 173 % of control and the T/C (dose: 66.0 mg/kg/injection, schedule: Q04DX003 (ip), vehicle: saline with Tween-80) was 109 % of control. The T/C [15] was 155 % of control and 177 % of control, the T/C (dose: 150.0 mg/kg/injection, schedule: Q01DX009 (ip), vehicle: saline with Tween-80) was 100 % of control and the T/C (dose: 150.0 mg/kg/injection, schedule: Q04DX003 (ip), vehicle: saline with Tween-80) was 240 % of control. The T/C [16] was 170 % of control.
For CCCCS(=O)(=O)CSC#N, the T/C (dose: 3.12 mg/kg/injection, schedule: Q01DX005 (ip), vehicle: saline with Tween-80) was 102 % of control, the T/C (dose: 6.25 mg/kg/injection, schedule: Q01DX005 (ip), vehicle: saline with Tween-80) was 105 % of control and the T/C (dose: 12.5 mg/kg/injection, schedule: Q01DX005 (ip), vehicle: saline with Tween-80) was 117 % of control.
